Reference: ChEMBL document CHEMBL1128961 (Bioorg Med Chem Lett, 1996)

These compounds were tested against T1, Acetylcholinesterase (Bos taurus) (UniProt P23795).
T1 sequence (whole entry): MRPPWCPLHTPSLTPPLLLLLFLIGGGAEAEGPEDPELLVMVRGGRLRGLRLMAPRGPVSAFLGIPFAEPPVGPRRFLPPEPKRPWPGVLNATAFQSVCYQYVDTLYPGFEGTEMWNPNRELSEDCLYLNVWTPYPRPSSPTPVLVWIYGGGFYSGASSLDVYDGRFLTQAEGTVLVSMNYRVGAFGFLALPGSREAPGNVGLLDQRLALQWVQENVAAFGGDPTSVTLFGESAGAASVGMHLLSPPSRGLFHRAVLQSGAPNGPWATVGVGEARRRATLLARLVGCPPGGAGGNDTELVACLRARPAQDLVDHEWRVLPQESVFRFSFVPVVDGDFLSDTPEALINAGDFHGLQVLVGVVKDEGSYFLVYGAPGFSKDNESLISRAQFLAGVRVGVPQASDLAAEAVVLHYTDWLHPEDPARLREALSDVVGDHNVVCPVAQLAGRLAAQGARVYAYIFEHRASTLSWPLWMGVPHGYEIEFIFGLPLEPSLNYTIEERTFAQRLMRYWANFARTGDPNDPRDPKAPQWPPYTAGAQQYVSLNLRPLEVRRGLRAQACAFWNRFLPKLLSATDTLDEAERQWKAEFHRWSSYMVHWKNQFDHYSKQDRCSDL
Description: Kinetic constant for inhibition of fetal bovine serum acetylcholinesterase

Question: For C/C=C1\[C@H]2C=C(C)C[C@]1(N)c1ccc(=O)[nH]c1C2 (stereo in doubt; form 2), which k off is on record?
Answer: The k off was 0.000334 s⁻¹.

Question: Which k off does the source give for C/C=C1\[C@H]2C=C(C)C[C@]1(N)c1ccc(=O)[nH]c1C2 (stereo in doubt; form 1) here?
Answer: Its k off is 0.000367 s⁻¹.

Question: How did the k off turn out when C/C=C1\C2C=C(C)C[C@]1(N)c1ccc(O)nc1C2(C)C (mixture of isomers) was run?
Answer: Its k off is 0.000217 s⁻¹.

What follows are compounds tested against T2, Acetylcholinesterase (Bos taurus, UniProt P23795) (assay: Dissociation constant for the inhibition of fetal bovine serum acetylcholinesterase was determined..).
T2 sequence (P23795 whole entry): T1 sequence (whole entry)

Question: Which Ki does the source give for C/C=C1\[C@H]2C=C(C)C[C@]1(N)c1ccc(=O)[nH]c1C2 (stereo in doubt; form 2) [HUPERZINE A] here?
Answer: The Ki was 5.9 nM.

Question: For C/C=C1\[C@H]2C=C(C)C[C@]1(N)c1ccc(=O)[nH]c1C2 (stereo in doubt; form 1) [HUPERZINE A], which Ki is on record?
Answer: Its Ki is 23.6 nM.

Question: For C/C=C1\C2C=C(C)C[C@]1(N)c1ccc(O)nc1C2(C)C (mixture of isomers), which Ki is on record?
Answer: The Ki was 16.7 nM.
